Measured values from patent US11691962B2 (eXIthera Pharmaceuticals, Inc., priority 2018, dated 2023).

target: Factor XIa (Homo sapiens (Human), UniProt P03951); test: Factor XIa enzyme inhibition assay (dose response, fluorogenic AMC substrate); assay type: biochemical; conditions: read-out: hFXIa IC50
Description: • Assay buffer: 20 mM Hepes, pH 7.4; 150 mM NaCl; 0.02% Tween 20 • Compounds: 10 mM stocks in DMSO • Substrate: 20 mM Glp-Pro-Arg-AMC, 25 mg/2.3 mL H2O (store at +4° C.) [Factor XIa, thrombin, and trypsin] • 20 mM Pro-Phe-Arg-AMC (Bachem I-1295), 25 mg/2.2 mL H2O • or Boc-Leu-Gly-Arg-AMC (Bachem I-1105), 25 mg/2.07 mL H2O • (store at +4° C.) [Factor Xa] • Enzyme: Factor XIa; 0.25 μM in 50% glycerol (20 μg/mL) • Trypsin; 0.2 μM in 50% glycerol (4.8 μg/mL) • Thrombin; 0.2 μM in 50% glycerol (7.34 μg/mL) • Factor Xa; 0.2 μM in 50% glycerol (9.2 μg/mL) • These stocks are aliquoted (˜100 μL/aliquot) and stored at −20° C. Methods: • 1. Dilute the substrate to 100 μM in assay buffer (30 μL/6 mL). The enzyme is diluted to 0.5 nM just prior to use (12 μL/6 mL for Factor XIa; 15 μL/6 mL for all of the rest.) • 2. Pipette 50 μL of substrate into each well of the 96 well (12×8) microtiter plate. (Column 1 is used as the 100% activity control and receives no compound, and Column 12 is the blank and receives no enzyme.) Add an additional 46 μL to column 2. • 3. Pipette 4 μL of each compound into the appropriate well in column 2 of the plate (unknowns assayed in triplicate, standard assayed in duplicate). The final compound concentration will be […] of the stock. • 4. Serially two-fold dilute the compound by mixing the sample in column 2, removing 50 μL to the next well (column 3), mix and remove to column 4, etc. until column 11. After mixing column 11, remove 50 μL and discard. • 5. Pipette 50 μL of buffer into column 12. Initiate the reaction by adding 50 μL of enzyme solution to each well of columns 1-11 as rapidly as possible. • 6. Read the plate in a spectrophotometer (SpectraMax) at 30° C., wherein each well is measured every 60 s for 30 min. For Factor Xa assays, each well is measured every 1 min for a total of 60 min. • 7. For Factor XIa assays, the compounds are assayed, in duplicate, at 3 different starting concentrations, 20, 2, and 0.2 μM; 1:10, 1:100, and 1:1000 dilution of 10 mM stock or at 2, 0.2, and 0.02 μM; 1:100, 1:1000, and 1:10,000 dilution of 10 mM stock. Data for each concentration are combined for graphing and data fitting. • 8. Data can be used both for estimation of IC50 and for estimation of Kon.
Potential inhibitors of Factor XIa were evaluated using the following assay.
PyroGlu-Pro-Arg-7-methylaminocourin (AMC), available from CPC Scientific, Inc., is based on the substrate pyro-Glu-Pro-Arg-pNA (S-2366), available from Diapharma Group, Inc. (Columbus, Ohio), wherein the p-nitroanaline group is replaced with 7-methylaminocoumarin (AMC).
The final concentration of the substrate in the assay was 50 μM, and the final concentration of the enzyme was 0.25 nM. Inhibitors were tested by serial dilution over an appropriate range to yield a dose response curve for determination of the inhibitors' IC50 value. The assay mixture was read every minute for 30 minutes in order to generate progress curves. The plates were read in a Spectramax m5 Multimode Plate Reader (Molecular Devices LLC, Sunnyvale, Calif.). Dose response curves were fit to Equation 1 below in which A is the maximum inhibition, B is the minimum inhibition, C is the IC50, and D is the Hill coefficient. Y=[(A−B)/(1+(X/C)^D)]+B (Equation 1)

Factor XIa, sequence (P03951 388-625): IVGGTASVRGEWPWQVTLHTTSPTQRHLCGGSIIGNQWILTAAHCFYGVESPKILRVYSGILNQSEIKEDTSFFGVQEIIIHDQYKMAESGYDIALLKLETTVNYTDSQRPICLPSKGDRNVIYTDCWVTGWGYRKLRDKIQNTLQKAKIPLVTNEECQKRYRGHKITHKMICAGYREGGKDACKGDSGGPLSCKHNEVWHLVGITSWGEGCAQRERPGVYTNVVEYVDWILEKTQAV
Factor XIa, sequence (P03951 19-387 partner): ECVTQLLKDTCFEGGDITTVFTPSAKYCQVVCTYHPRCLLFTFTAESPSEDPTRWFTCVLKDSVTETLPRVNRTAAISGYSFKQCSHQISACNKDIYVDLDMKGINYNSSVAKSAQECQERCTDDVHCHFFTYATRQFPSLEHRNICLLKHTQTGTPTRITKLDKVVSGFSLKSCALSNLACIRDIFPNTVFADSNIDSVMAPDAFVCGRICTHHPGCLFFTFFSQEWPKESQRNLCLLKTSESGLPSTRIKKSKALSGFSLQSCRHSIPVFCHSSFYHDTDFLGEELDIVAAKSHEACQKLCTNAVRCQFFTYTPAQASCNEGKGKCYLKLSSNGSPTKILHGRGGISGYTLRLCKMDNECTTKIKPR

| Compound | IC50 |
| --- | --- |
| CC[C@@H](NC(=O)N1C(=O)[C@H](Cc2ccnc(N)c2)[C@H]1C(=O)N(C)c1ccn(C)n1)c1cccs1 [Compound 1-53, (2S,3R)-3-((2-aminopyridin-4-yl)methyl)-N2-(1-methyl-1H-pyrazol-3-yl)-N1-((R)-1-(thiophen-2-yl)propyl)-N2-methyl-4-oxoazetidine-1,2-dicarboxamide] | 10 to 100 nM |
| CC[C@@H](NC(=O)N1C(=O)[C@H](Cc2ccnc(N)c2)[C@H]1C(=O)N(C)c1nccn1C)c1cc(C)c(F)c(C)c1 [Compound 1-195, (2S,3R)-3-((2-aminopyridin-4-yl)methyl)-N2-(1-methyl-1H-imidazol-2-yl)-N1-((R)-1-(3,5-dimethyl-4-fluorophenyl)propyl)-N2-methyl-4-oxoazetidine-1,2-dicarboxamide] | < 10 nM |
| CC[C@@H](NC(=O)N1C(=O)[C@H](Cc2ccnc(N(C)C)c2)[C@H]1C(=O)N(C)c1cnn(C)c1)c1ccccc1 [Compound 1-5, (2S,3R)-3-((2-dimethylaminopyridin-4-yl)methyl)-N2-(1-methyl-1H-pyrazol-4-yl)-N1-((R)-1-phenylpropyl)-N2-methyl-4-oxoazetidine-1,2-dicarboxamide] | > 1000 nM |
| CC[C@@H](NC(=O)N1C(=O)[C@H](Cc2ccnc(N)c2)[C@H]1C(=O)N(C)c1nccn1C)c1ccc(C)cc1F [Compound 1-119, (2S,3R)-3-((2-aminopyridin-4-yl)methyl)-N2-(1-methyl-1H-imidazol-2-yl)-N1-((R)-1-(2-fluoro-4-methylphenyl)propyl)-N2-methyl-4-oxoazetidine-1,2-dicarboxamide] | < 10 nM |
| CC[C@@H](NC(=O)N1C(=O)[C@H](Cc2cc(C)nc(N)c2)[C@H]1C(=O)N(C)c1cnn(C)c1)c1cccc(F)c1F [Compound 1-174, (2S,3R)-3-((2-amino-6-methylpyridin-4-yl)methyl)-N2-(1-methyl-1H-pyrazol-4-yl)-N1-((R)-1-(2,3-difluorophenyl)propyl)-N2-methyl-4-oxoazetidine-1,2-dicarboxamide] | 10 to 100 nM |
| CC[C@@H](NC(=O)N1C(=O)[C@H](Cc2ccnc(N)c2)[C@H]1C(=O)N(C)c1cnn(C)c1)c1ccc(F)c(C)c1F [Compound 1-207, (2S,3R)-3-((2-aminopyridin-4-yl)methyl)-N2-(1-methyl-1H-pyrazol-4-yl)-N1-((R)-1-(2,4-difluoro-3-methylphenyl)propyl)-N2-methyl-4-oxoazetidine-1,2-dicarboxamide] | < 10 nM |
| Cc1cc(C[C@H]2C(=O)N(C(=O)NC(C3CCCCC3)C(F)(F)F)[C@@H]2C(=O)N(C)c2nccn2C)cc(N)n1 (stereo in doubt) [Compound 1-77, (2S,3R)-3-((2-amino-6-methylpyridin-4-yl)methyl)-N2-(1-methyl-1H-imidazol-2-yl)-N1-((R)-1-cyclohexyl-2,2,2-trifluoroethyl)-N2-methyl-4-oxoazetidine-1,2-dicarboxamide] | 10 to 100 nM |
| CC[C@@H](NC(=O)N1C(=O)[C@H](Cc2ccnc(N)c2)[C@H]1C(=O)N(C)c1ccsn1)c1ccccc1 [Compound 1-21, (2S,3R)-3-((2-aminopyridin-4-yl)methyl)-N2-(3-isothiazolyl)-N1-((R)-1-phenylpropyl)-N2-methyl-4-oxoazetidine-1,2-dicarboxamide] | 10 to 100 nM |
| CC[C@@H](NC(=O)N1C(=O)[C@H](Cc2cc(C)nc(N)c2)[C@H]1C(=O)N(C)c1cnn(C)c1)c1cccc(C)c1F [Compound 1-190, (2S,3R)-3-((2-amino-6-methylpyridin-4-yl)methyl)-N2-(1-methyl-1H-pyrazol-4-yl)-N1-((R)-1-(2-fluoro-3-methylphenyl)propyl)-N2-methyl-4-oxoazetidine-1,2-dicarboxamide] | < 10 nM |
| CC[C@@H](NC(=O)N1C(=O)[C@H](Cc2cc(C)nc(NC)c2)[C@H]1C(=O)N(C)c1cnn(C)c1)c1ccccc1 [Compound 1-66, (2S,3R)-3-((2-methylamino-6-methylpyridin-4-yl)methyl)-N2-(1-methyl-1H-pyrazol-4-yl)-N1-((R)-1-phenylpropyl)-N2-methyl-4-oxoazetidine-1,2-dicarboxamide] | 10 to 100 nM |
| CC[C@@H](NC(=O)N1C(=O)[C@H](Cc2cc(C)nc(N)c2)[C@H]1C(=O)N(C)c1ccnn1C)c1cccc(F)c1C [Compound 1-150, (2S,3R)-3-((2-amino-6-methylpyridin-4-yl)methyl)-N2-(1-methyl-1H-pyrazol-5-yl)-N1-((R)-1-(3-fluoro-2-methylphenyl)propyl)-N2-methyl-4-oxoazetidine-1,2-dicarboxamide] | < 10 nM |
| CC[C@@H](NC(=O)N1C(=O)[C@H](Cc2cc(C)nc(N)c2)[C@H]1C(=O)N(C)C1=NC(=O)CN1C)c1ccccc1 [Compound 1-139, (2S,3R)-3-((2-amino-6-methylpyridin-4-yl)methyl)-N2-(4-oxo-1-methyl-4,5-dihydro-1H-imidazol-2-yl)-N1-((R)-1-phenylpropyl)-N2-methyl-4-oxoazetidine-1,2-dicarboxamide] | 10 to 100 nM |
| CC[C@H](c1cccc(Cl)c1)N(C)C(=O)N1C(=O)[C@H](Cc2ccnc(N)c2)[C@H]1C(=O)N(C)c1ccnn1C [Compound 1-60, (2S,3R)-3-((2-aminopyridin-4-yl)methyl)-N2-(1-methyl-1H-pyrazol-5-yl)-N1-((R)-1-(3-chlorophenyl)propyl)-N1-methyl-N2-methyl-4-oxoazetidine-1,2-dicarboxamide] | 10 to 100 nM |
| CC[C@@H](NC(=O)N1C(=O)[C@H](Cc2cc(C)nc(N)c2)[C@H]1C(=O)N(C)c1nccn1C)c1ccc(C)nc1 [Compound 1-82, (2S,3R)-3-((2-amino-6-methylpyridin-4-yl)methyl)-N2-(1-methyl-1H-imidazol-2-yl)-N1-((R)-1-(6-methylpyridin-3-yl)propyl)-N2-methyl-4-oxoazetidine-1,2-dicarboxamide] | 10 to 100 nM |
| CC[C@@H](NC(=O)N1C(=O)[C@H](Cc2cc(C)nc(N)c2)[C@H]1C(=O)N(C)c1ccnn1C)c1ccc(F)cc1C [Compound 1-159, (2S,3R)-3-((2-amino-6-methylpyridin-4-yl)methyl)-N2-(1-methyl-1H-pyrazol-5-yl)-N1-((R)-1-(4-fluoro-2-methylhenyl)propyl)-N2-methyl-4-oxoazetidine-1,2-dicarboxamide] | < 10 nM |
| CC[C@@H](NC(=O)N1C(=O)[C@H](Cc2cc(C)nc(N)c2)[C@H]1C(=O)N(C)c1nncs1)c1ccccc1 [Compound 1-186, (2S,3R)-3-((2-amino-6-methylpyridin-4-yl)methyl)-N2-(1,3,4-thiadiazol-2-yl)-N1-((R)-1-phenylpropyl)-N2-methyl-4-oxoazetidine-1,2-dicarboxamide] | < 10 nM |
| CCC[C@@H](NC(=O)N1C(=O)[C@H](Cc2ccnc(N)c2)[C@H]1C(=O)N(C)c1ccn(C)n1)C1CCCCC1 [Compound 1-68, (2S,3R)-3-((2-aminopyridin-4-yl)methyl)-N2-(1-methyl-1H-pyrazol-3-yl)-N1-((R)-1-cyclohexylbutyl)-N2-methyl-4-oxoazetidine-1,2-dicarboxamide] | 10 to 100 nM |
| CCNc1cc(C[C@H]2C(=O)N(C(=O)N[C@H](CC)c3cccc(Cl)c3)[C@@H]2C(=O)N(C)c2ccn(C)n2)ccn1 [Compound 1-39, (2S,3R)-3-((2-ethylaminopyridin-4-yl)methyl)-N2-(1-methyl-1H-pyrazol-3-yl)-N1-((R)-1-(3-chlorophenyl)propyl)-N2-methyl-4-oxoazetidine-1,2-dicarboxamide] | 10 to 100 nM |
| CC[C@@H](NC(=O)N1C(=O)[C@H](Cc2cc(C)nc(NC)c2)[C@H]1C(=O)N(C)c1ccnn1C)c1ccccc1 [Compound 1-61, (2S,3R)-3-((2-methylamino-6-methylpyridin-4-yl)methyl)-N2-(1-methyl-1H-pyrazol-5-yl)-N1-((R)-1-phenylpropyl)-N2-methyl-4-oxoazetidine-1,2-dicarboxamide] | 10 to 100 nM |
